Results published in patent publication US11066421B1, “Synthetic cinchona alkaloids against cancer” (Ares Pharmaceuticals, LLC, priority 2021, dated 2021).
“Also recorded” adds a separate entry of the source.

Experiments:
PC-3 = assay: Confocal laser scanning microscopy apoptosis, PC-3; assay type: cell-based, human; settings: 100 nM, 48 hours
Experimental: (§1) Confocal Laser Scanning Microscopy. Cells were treated with cinchona alkaloids or PBS in culture medium for 48 hours. After 48 hr of culture, cells were co-stained with a rabbit polyclonal antitubulin antibody (Green Fluorescence) and the DNA-specific dye Toto-3 (Blue Fluorescence) and examined by laser scanning confocal microscopy using a Bio-Rad MRC-1024 Laser Scanning Confocal Microscope equipped with a Kr/Ar laser (Bio-Rad, Hercules, Calif., USA) mounted on a Nikon Eclipse E800 upright microscope with high numerical aperture objectives (Nikon, Melville, N.Y., USA), as described (F. M. Uckun, et al., 2010, Proc. Natl. Acad. Sci. USA, 107: 2902-7; F. M. Uckun., et al., 2010, British Journal of Haematology, 149: 508-17; F. M. Uckun, et al., 2013, Blood. 121:4348-54; F. M. Uckun et al., 2010, Proc. Natl Acad. Sci. USA 107:16852-57; F. M. Uckun et al., 2012, Proc. Natl Acad. Sci. USA 109:18072-77). Cell lines. BT-20 (ATCC HTB-19), a triple negative breast cancer cell line, PC-3 (ATCC CRL-1435) a CRPC cell line (small cell endocrine carcinoma) derived from a Stage IV prostate cancer patient with bone metastases were obtained from American Type Culture Collection (ATCC) (Manassas, Va.). […] Cells were washed in PBS and counterstained with the DNA-specific dye TOTO-3 (blue fluorescence) (Molecular Probes Inc., Eugene, Oreg.) for 10 min at a dilution of 1:1000. […]

BT-20 = assay: Confocal laser scanning microscopy apoptosis, BT-20; assay type: cell-based, human; settings: 100 nM, 48 hours
Experimental: as §1

[1] = tested on: PC3 human prostate cancer cells; assay: CB.17 SCID mouse xenograft model of human prostate cancer; assay type: in vivo; settings: 2 mg/kg i.p. twice daily, 5 days on 2 days off
Experimental: Cell Lines. Human prostate cancer cell line PC3 (ATCC CRL-1435) was obtained from American Type Culture Collection (Rockville, Md.) and maintained as a continuous cell line in DMEM supplemented with 10% fetal calf serum (FCS), 4 mm glutamine, 100 units/ml penicillin G, and […] streptomycin sulfate. All of the tissue culture reagents were obtained from Life Technologies, Inc. Inc. (Gaithersburg, Md.). Mice. Female CB.17 SCID mice were obtained from Taconic (Germantown, N.Y.) and housed in a specific-pathogen-free room located in a secure indoor facility with controlled temperature, humidity, and noise levels. Mice were housed in micro-isolator cages and fed with autoclaved rodent chow. Water was also autoclaved and supplemented with trimethoprim/sulfamethoxazol 3 days a week. The animal protocol used in this study was approved by the Drug Discovery Enterprises Animal Care and Use Committee (IACUC), and all of the animal care procedures conformed to the Guide for the Care and Use of Laboratory Animals (National Research Council, National Academy Press, Washington D.C. 1996). […] The size of subcutaneous tumors were measured on day 16 and day 18 to evaluate the ability of AP-8 to inhibit tumor growth in this SCID mouse xenograft model of prostate cancer. Tumor volumes were calculated using the formula for the volume of a prolate spheroid, V=4/3×3.14×length/2×width/2×depth/2.

| Compound | signs of apoptosis by confocal imaging (PC-3) | signs of apoptosis by confocal imaging (BT-20) | tumor progression [1] | average tumor volume ([1]; day 18, from day 7) |
| --- | --- | --- | --- | --- |
| 2,4,6-Tri (9-O-dihydrocinchoninyl)pyrimidine [AP-5] | virtually all of the BT-20 or PC-3 cells treated with AP-5 showed signs of advanced apoptosis; also recorded: virtually all of the PC-3 cells treated with AP-5 showed signs of advanced apoptosis | virtually all of the BT-20 or PC-3 cells treated with AP-5 showed signs of advanced apoptosis; also recorded: virtually all of the BT-20 cells treated with AP-5 showed signs of advanced apoptosis |  |  |
| CCC1CN2CCC1CC2C(Oc1cc(OC(c2ccnc3ccc(OC)cc23)C2CC3CCN2CC3CC)nc(OC(c2ccnc3ccc(OC)cc23)C2CC3CCN2CC3CC)n1)c1ccnc2ccc(OC)cc12 (stereo not shown) [AP-8, 2,4,6-Tri (9-O-dihydroquinidinyl)pyrimidine] |  |  | significantly slowed down the tumor progression | 45.1±7.8 mm^3 |
